Read-outs that look alike come from different tables or passages of the source.
Tested on: anthrax lethal toxin (LT)
Assay: cells
Format: cell-based, murine
[1] = Mus musculus, RAW264.7, read-out: IC50 (In uM)
[2] = Mus musculus, RAW264.7, read-out: IC50, inhibition of LT-induced cell death

Q: Which results are given for `Cc1cccc(C)c1NC(=O)N/N=C/c1ccc(Br)cc1F` [Compound 2, N^1-(4-BROMO-2-FLUOROBENZYLIDENE)-N^4-(2,6-DIMETHYLPHENYL)SEMICARBAZONE]?
A: protection of cells from LT (in words): mid-nanomolar levels; IC50 (Mus musculus, RAW264.7): 0.4 µM; IC50 [1]: 0.4 µM; IC50 [2]: 0.4 µM

Q: Which “protection of cells from LT (in words)” value does the source give for `Cc1cccc(C)c1NC(=O)NN` [Compound 6, N-(2,6-DIMETHYLPHENYL) SEMICARBAZIDE] here?
A: did not prevent toxin-induced cell death

Q: Which results are given for `Cc1ccc(NC(=O)N/N=C/c2ccc(Br)cc2)c(C)c1` [Compound 9a, N^1-(4-BROMOBENZYLIDENE)-N^4-(2,4-DIMETHYLPHENYL)SEMICARBAZONE]?
A: protection of cells from LT (in words): not protective; IC50 (Mus musculus, RAW264.7): > 25 µM

Q: Which “fold less active than 1” value does the source give for `Cc1cc(C)c(NC(=O)N/N=C/c2ccc(Br)cc2)c(C)c1` [Compound 9b, N^1-(4-BROMOBENZYLIDENE)-N^4-(2,4,6-DIMETHYLPHENYL)SEMICARBAZONE] here?
A: approximately 10 fold

Q: And the IC50 (Mus musculus, RAW264.7)?
A: 12.6 µM

Q: And the IC50 [1]?
A: 12.6 µM

Q: What does the source list for `CCc1cccc(CC)c1NC(=O)N/N=C/c1ccc(Br)cc1` [Compound 9c, N^1-(4-BROMOBENZYLIDENE)-N^4-(2,6-DIETHYLPHENYL)SEMICARBAZONE]?
A: IC50: > 12.5 µM; IC50 (Mus musculus, RAW264.7): 16.7 µM; IC50 [1]: > 12.5 µM; IC50 [2]: > 12.5 µM

Q: How did the “protection of cells from LT (in words)” value turn out when `CC(C)(C)NC(=O)N/N=C/c1ccc(Br)cc1` [Compound 10, N^1-(4-BROMOBENZYLIDENE)-N^4-(TERT-BUTYL)SEMICARBAZONE] was run?
A: not protective

Q: And the IC50 (Mus musculus, RAW264.7)?
A: > 25 µM

Q: How did the “protection of cells from LT (in words)” value turn out when `O=C(N/N=C/c1ccc(Cl)cc1)Nc1ccccc1` [Compound 11, N^1-(4-Cl-benzylidene)-N^4-phenylsemicarbazone, reference compound] was run?
A: not protective

Q: And the IC50 (Mus musculus, RAW264.7)?
A: > 25 µM

Q: How did the “protection of cells from LT (in words)” value turn out when `Cc1cccc(C)c1NC(=O)NN=Cc1ccccc1` [Compound 12, benzaldehyde N-(2,6-dimethylphenyl)semicarbazone, reference compound] was run?
A: showed almost no activity against LT

Q: What about the IC50 (Mus musculus, RAW264.7) of the same molecule?
A: > 25 µM

Q: Which IC50 does the source give for `Cc1cccc(C)c1NC(=O)N/N=C/c1ccc(Cl)cc1` [Compound 13a, N^1-(4-CHLOROBENZYLIDENE)-N^4-(2,6-DIMETHYLPHENYL)SEMICARBAZONE] here?
A: 1.7 ± 0.2 µM

Q: What about the IC50 (Mus musculus, RAW264.7) of the same molecule?
A: 1.65 µM

Q: What about the IC50 [1] of the same molecule?
A: 1.65 µM

Q: Which IC50 (Mus musculus, RAW264.7) does the source give for `Cc1cccc(C)c1NC(=O)N/N=C/c1ccc(Br)c(F)c1` [Compound 13aa, N^1-(4-BROMO-3-FLUOROBENZYLIDENE)-N^4-(2,6-DIMETHYLPHENYL)SEMICARBAZONE] here?
A: 1.5 µM

Q: `Cc1cccc(C)c1NC(=O)N/N=C/c1ccc(Br)c(Cl)c1` [Compound 13ab, N^1-(4-BROMO-3-CHLOROBENZYLIDENE)-N^4-(2,6-DIMETHYLPHENYL)SEMICARBAZONE] was tested. Which IC50 (Mus musculus, RAW264.7) did it give?
A: 3.4 µM

Q: `Cc1cccc(C)c1NC(=O)N/N=C/c1cccc(C(F)(F)F)c1Cl` [Compound 13b, N^1-(2-CHLORO-3-TRIFLUOROMETHYLBENZYLIDENE)-N^4-(2,6-DIMETHYLPHENYL)SEMICARBAZONE] was tested. Which IC50 (Mus musculus, RAW264.7) did it give?
A: > 25 µM

Q: What about the IC50 [1] of the same molecule?
A: > 25 µM

Q: With `Cc1cccc(C)c1NC(=O)N/N=C/c1ccccc1F` [Compound 13c, N^1-(2-FLUOROBENZYLIDENE)-N^4-(2,6-DIMETHYLPHENYL)SEMICARBAZONE] as the molecule, how does the IC50 (Mus musculus, RAW264.7) read?
A: 8.2 µM

Q: And the IC50 [1]?
A: 8.23 µM

Q: Which IC50 (Mus musculus, RAW264.7) does the source give for `Cc1ccc(/C=N/NC(=O)Nc2c(C)cccc2C)cc1F` [Compound 13d, N^1-(3-FLUORO-4-METHYLBENZYLIDENE)-N^4-(2,6-DIMETHYLPHENYL)SEMICARBAZONE] here?
A: 1.8 µM

Q: What about the IC50 [1] of the same molecule?
A: 1.81 µM

Q: For `Cc1cccc(C)c1NC(=O)N/N=C/c1ccc(F)cc1` [Compound 13e, N^1-(4-FLUOROBENZYLIDENE)-N^4-(2,6-DIMETHYLPHENYL)SEMICARBAZONE], which IC50 (Mus musculus, RAW264.7) is on record?
A: 7 µM

Q: And the IC50 [1]?
A: 7 µM

Q: And the IC50 [2]?
A: 7 µM

Q: For `Cc1cccc(C)c1NC(=O)N/N=C/c1ccc(F)cc1F` [Compound 13f, N^1-(2,4-DIFLUOROBENZYLIDENE)-N^4-(2,6-DIMETHYLPHENYL)SEMICARBAZONE], which IC50 (Mus musculus, RAW264.7) is on record?
A: 2.1 µM

Q: And the IC50 [1]?
A: 2.14 µM

Q: And the IC50 [2]?
A: 2.1 µM

Q: For `COc1cccc(/C=N/NC(=O)Nc2c(C)cccc2C)c1OC` [Compound 13g, N^1-(2,3-DIMETHOXYBENZYLIDENE)-N^4-(2,6-DIMETHYLPHENYL)SEMICARBAZONE], which IC50 (Mus musculus, RAW264.7) is on record?
A: > 25 µM

Q: And the IC50 [1]?
A: > 25 µM

Q: Which results are given for `COc1cc(OC)c(/C=N/NC(=O)Nc2c(C)cccc2C)c(OC)c1` [Compound 13h, N^1-(2,4,6-TRIMETHOXYBENZYLIDENE)-N^4-(2,6-DIMETHYLPHENYL)SEMICARBAZONE]?
A: IC50 (Mus musculus, RAW264.7): > 25 µM; IC50 [1]: > 25 µM

Q: Which IC50 (Mus musculus, RAW264.7) does the source give for `Cc1ccccc1/C=N/NC(=O)Nc1c(C)cccc1C` [Compound 13i, N^1-(2-METHYLBENZYLIDENE)-N^4-(2,6-DIMETHYLPHENYL)SEMICARBAZONE] here?
A: > 25 µM

Q: And the IC50 [1]?
A: > 25 µM

Q: With `Cc1cccc(/C=N/NC(=O)Nc2c(C)cccc2C)c1` [Compound 13j, N^1-(3-METHYLBENZYLIDENE)-N^4-(2,6-DIMETHYLPHENYL)SEMICARBAZONE] as the molecule, how does the IC50 (Mus musculus, RAW264.7) read?
A: 13.4 µM

Q: And the IC50 [1]?
A: 13.4 µM

Q: What does the source list for `Cc1ccc(/C=N/NC(=O)Nc2c(C)cccc2C)cc1` [Compound 13k, N^1-(4-METHYLBENZYLIDENE)-N^4-(2,6-DIMETHYLPHENYL)SEMICARBAZONE]?
A: IC50 (Mus musculus, RAW264.7): 2.9 µM; IC50 [1]: 2.9 µM

Q: `CCc1ccc(/C=N/NC(=O)Nc2c(C)cccc2C)cc1` [Compound 13l, N^1-(4-ETHYLBENZYLIDENE)-N^4-(2,6-DIMETHYLPHENYL)SEMICARBAZONE] was tested. Which IC50 (Mus musculus, RAW264.7) did it give?
A: 3 µM

Q: What about the IC50 [1] of the same molecule?
A: 3.02 µM

Q: `Cc1cccc(C)c1NC(=O)N/N=C/c1ccc(C(C)C)cc1` [Compound 13m, N^1-(4-I-PROPYLBENZYLIDENE)-N^4-(2,6-DIMETHYLPHENYL)SEMICARBAZONE] was tested. Which IC50 (Mus musculus, RAW264.7) did it give?
A: 6.5 µM

Q: And the IC50 [1]?
A: 6.48 µM

Q: `COc1ccc(/C=N/NC(=O)Nc2c(C)cccc2C)cc1` [Compound 13n, N^1-(4-METHOXYBENZYLIDENE)-N^4-(2,6-DIMETHYLPHENYL)SEMICARBAZONE] was tested. Which IC50 (Mus musculus, RAW264.7) did it give?
A: > 12.5 µM

Q: And the IC50 [1]?
A: > 12.5 µM

Q: With `C#Cc1ccc(/C=N/NC(=O)Nc2c(C)cccc2C)cc1` [Compound 13o, N^1-(4-ETHYNYLBENZYLIDENE)-N^4-(2,6-DIMETHYLPHENYL)SEMICARBAZONE] as the molecule, how does the IC50 (Mus musculus, RAW264.7) read?
A: 1.7 µM

Q: What about the IC50 [1] of the same molecule?
A: 1.69 µM

Q: For `Cc1cccc(C)c1NC(=O)N/N=C/c1ccc(NS(C)(=O)=O)cc1` [Compound 13p, N^1-(4-(N-(4-FORMYLPHENYL)METHANESULFONAMIDE)BENZYLIDENE-N^4-(2,6-DIMETHYLPHENYL)SEMICARBAZONE], which IC50 (Mus musculus, RAW264.7) is on record?
A: > 25 µM

Q: And the IC50 [1]?
A: > 25 µM

Q: `Cc1cccc(C)c1NC(=O)N/N=C/c1ccc(I)cc1` [Compound 13q, N^1-(4-IODOBENZYLIDENE)-N^4-(2,6-DIMETHYLPHENYL)SEMICARBAZONE] was tested. Which IC50 did it give?
A: 1.8 ± 0.3 µM

Q: What about the IC50 (Mus musculus, RAW264.7) of the same molecule?
A: 1.77 µM

Q: And the IC50 [1]?
A: 1.77 µM

Q: How did the IC50 (Mus musculus, RAW264.7) turn out when `Cc1cccc(C)c1NC(=O)N/N=C/c1ccc(C(F)(F)F)cc1` [Compound 13r, N^1-(4-TRIFLUOROMETHYLBENZYLIDENE)-N^4-(2,6-DIMETHYLPHENYL)SEMICARBAZONE] was run?
A: 2.6 ± 0.5 µM

Q: And the IC50 [1]?
A: 2.59 µM

Q: `Cc1cccc(C)c1NC(=O)N/N=C/c1ccc(C#N)cc1` [Compound 13s, N^1-(4-CYANOMETHYLBENZYLIDENE)-N^4-(2,6-DIMETHYLPHENYL)SEMICARBAZONE] was tested. Which IC50 did it give?
A: 2.5 ± 0.3 µM

Q: And the IC50 (Mus musculus, RAW264.7)?
A: 2.45 µM

Q: And the IC50 [1]?
A: 2.45 µM

Q: Which IC50 (Mus musculus, RAW264.7) does the source give for `Cc1cccc(C)c1NC(=O)N/N=C/c1ccncc1` [Compound 13t, N^1-(PYRIDIN-4-YLMETHYLENE)-N^4-(2,6-DIMETHYLPHENYL)SEMICARBAZONE] here?
A: > 25 µM

Q: How did the IC50 (Mus musculus, RAW264.7) turn out when `Cc1cccc(C)c1NC(=O)N/N=C/c1ccco1` [Compound 13u, N^1-(FURAN-2-YLMETHYLENE)-N^4-(2,6-DIMETHYLPHENYL)SEMICARBAZONE] was run?
A: > 25 µM

Source: patent US10730848B2 (priority 2013, dated 2020)
